Measured values from patent publication US20250195536A1, “BICYCLOOCTANE KRAS INHIBITORS” (Incyte Corporation, priority 2023, published 2025).

Experiments:
[1] = target: KRAS G12D (Homo sapiens, UniProt P01116, G12D); experiment: GDP-GTP exchange assay (KRAS G12D); type: biochemical; conditions: bodipy-GDP/GppNHp exchange with SOS1; 4 h pre-incubation, 2 h reaction;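 further: one dagger IC50 up to 100 nM and two daggers above 100 nM up to 1 μM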
How it was run: (§1)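 Bodipy-GDP-loaded KRAS (2.5 nM final) was pre-incubated 4 h at r.t. with inhibitor in Hepes pH 7.5 buffer with MgCl2, then exchange started with GppNHp (500 μM) and SOS1 (150 nM) final. Fluorescence (ex 485/em 520 nm) read after 2 h for G12D, 3 h for G12V; IC50 from four-parameter logistic fit.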

[2] = target: KRAS G12V (Homo sapiens, UniProt P01116, G12V); experiment: GDP-GTP exchange assay (KRAS G12V); type: biochemical; conditions: bodipy-GDP/GppNHp exchange with SOS1; 3 h incubation after GppNHp-SOS1;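 further: one dagger IC50 up to 100 nM and two daggers above 100 nM up to 1 μM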
Chain of KRAS G12V (P01116 1-188 isoform P01116-2 G12V): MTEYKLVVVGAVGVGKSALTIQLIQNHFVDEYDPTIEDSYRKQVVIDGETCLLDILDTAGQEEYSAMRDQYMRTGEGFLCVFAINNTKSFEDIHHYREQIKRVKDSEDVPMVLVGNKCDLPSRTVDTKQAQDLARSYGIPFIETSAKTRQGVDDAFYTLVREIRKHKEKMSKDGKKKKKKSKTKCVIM
How it was run: as §1

[3] = Caco2 assay (permeability, Papp A-B); type: in vitro ADME; conditions: human, Caco-2, absorptive direction (A-B), 50 μM test compound, 4% BSA in receiver
Experimental: Caco-2 cells are grown at 37° C. in an atmosphere of 5% CO2 in DMEM growth medium supplemented with 10% (v/v) fetal bovine serum, 1% (v/v) nonessential amino acids, penicillin (100 U/mL), and streptomycin (100 μg/mL). Confluent cell monolayers are subcultured every 7 days or 4 days for Caco-2 by treatment with 0.05% trypsin containing […]. Caco-2 cells are seeded in 96-well Transwell plates. The seeding density for Caco-2 cells is 14,000 cells/well. DMEM growth medium is replaced every other day after seeding. Cell monolayers are used for transport assays between 22 and 25 days for Caco-2 cells.
Cell culture medium is removed and replaced with HBSS. To measure the TEER, the HBSS is added into the donor compartment (apical side) and receiver compartment (basolateral side). The TEER is measured by using a REMS Autosampler to ensure the integrity of the cell monolayers. Caco-2 cell monolayers with TEER values 300 Ω·cm^2 are used for transport experiments. To determine the Papp in the absorptive direction (A-B), solution of test compound (50 μM) in HBSS is added to the donor compartment (apical side), while HBSS solution with 4% BSA is added to the receiver compartment (basolateral side). The apical volume was 0.075 mL, and the basolateral volume is 0.25 mL. The incubation period is 120 min. at 37° C. in an atmosphere of 5% CO2. At the end of the incubation period, samples from the donor and receiver sides are removed and an equal volume of MeCN is added for protein precipitation. The supernatants are collected after centrifugation (3000 rpm, Allegra X-14R Centrifuge from Beckman Coulter, Indianapolis, IN) for LCMS analysis. The permeability value is determined according to the equation:
Papp(cm/s)=(F*VD)/(SA*MD),
where the flux rate (F, mass/time) is calc. from the slope of cumulative amounts of compound of interest on the receiver side, SA is the surface area of the cell membrane, VD is the donor volume, and MD is the initial amount of the solution in the donor chamber.
The symbol “+” indicates a Caco-2 value of ≤0.5, “++” indicates a Caco-2 value of >0.5 but ≤1; and “+++” indicates a Caco-2 value of >1. “NA” indicates Caco-2 value not available.

Chain of KRAS G12D (P01116 1-188 isoform P01116-2 G12D): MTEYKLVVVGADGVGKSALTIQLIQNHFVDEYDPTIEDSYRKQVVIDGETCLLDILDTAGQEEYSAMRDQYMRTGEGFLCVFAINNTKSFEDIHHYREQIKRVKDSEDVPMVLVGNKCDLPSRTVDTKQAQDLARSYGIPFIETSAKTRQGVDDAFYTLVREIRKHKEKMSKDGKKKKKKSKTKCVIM

Row | Compound | G12D_exchange (KRAS_G12D exchange assay IC50) [1] | G12V_exchange (KRAS_G12V exchange assay IC50) [2] | Papp A→B at 120 min, 50 μM [3] [×10⁻⁶ cm/s]
1 | Cc1nc2c(F)c(-c3cccc(Cl)c3Cl)c(CCC#N)cc2c2c1cc([C@H]1[C@H]3C[C@H](CN(c4cnn(C(F)F)c4)C3)N1C(=O)C1CC1)n2[C@H]1[C@H]2CN[C@@H]1C2 (atropisomer, axis not shown; (Ra)) [Example 8, 3-((Ra)-1-((1R,4R,5S)-2-azabicyclo[2.1.1]hexan-5-yl)-2-((1S,5R,7R)-6-(cyclopropanecarbonyl)-3-(1-(difluoromethyl)-1H-pyrazol-4-yl)-3,6-diazabicyclo[3.2.1]octan-7-yl)-7-(2,3-dichlorophenyl)-6-fluoro-4-methyl-1H-pyrrolo[3,2-c]quinolin-8-yl)propanenitrile] | † | † | ≤ 0.5
2 | Cc1nc2c(F)c(-c3cccc(Cl)c3Cl)c(CCC#N)cc2c2c1cc([C@H]1[C@H]3C[C@H](CN(c4cccnc4)C3)N1C(=O)C1CC1)n2[C@H]1[C@H]2CN[C@@H]1C2 (atropisomer, axis not shown; (Ra)) [Example 9, 3-((Ra)-1-((1R,4R,5S)-2-azabicyclo[2.1.1]hexan-5-yl)-2-((1S,5R,7R)-6-(cyclopropanecarbonyl)-3-(pyridin-3-yl)-3,6-diazabicyclo[3.2.1]octan-7-yl)-7-(2,3-dichlorophenyl)-6-fluoro-4-methyl-1H-pyrrolo[3,2-c]quinolin-8-yl)propanenitrile] | † | † | ≤ 0.5
3 | Cc1nc2c(F)c(-c3cccc(Cl)c3Cl)c(CCC#N)cc2c2c1cc([C@H]1[C@H]3C[C@H](CN(c4cccc(C(F)(F)F)c4)C3)N1C(=O)C1CC1)n2[C@H]1[C@H]2CN[C@@H]1C2 (atropisomer, axis not shown; (Ra)) [Example 10, 3-((Ra)-1-((1R,4R,5S)-2-azabicyclo[2.1.1]hexan-5-yl)-2-((1S,5R,7R)-6-(cyclopropanecarbonyl)-3-(3-(trifluoromethyl)phenyl)-3,6-diazabicyclo[3.2.1]octan-7-yl)-7-(2,3-dichlorophenyl)-6-fluoro-4-methyl-1H-pyrrolo[3,2-c]quinolin-8-yl)propanenitrile] | †† | † | ≤ 0.5
4 | Cc1nc2c(F)c(-c3cccc(Cl)c3Cl)c(CCC#N)cc2c2c1cc([C@H]1[C@H]3C[C@H](CN(c4ccc(C(F)(F)F)cc4)C3)N1C(=O)C1CC1)n2[C@H]1[C@H]2CN[C@@H]1C2 (atropisomer, axis not shown; (Ra)) [Example 12, 3-((Ra)-1-((1R,4R,5S)-2-azabicyclo[2.1.1]hexan-5-yl)-2-((1S,5R,7R)-6-(cyclopropanecarbonyl)-3-(4-(trifluoromethyl)phenyl)-3,6-diazabicyclo[3.2.1]octan-7-yl)-7-(2,3-dichlorophenyl)-6-fluoro-4-methyl-1H-pyrrolo[3,2-c]quinolin-8-yl)propanenitrile] | †† | † | ≤ 0.5
5 | Cc1nc2c(F)c(-c3cccc(Cl)c3Cl)c(CCC#N)cc2c2c1cc([C@H]1[C@H]3C[C@H](CN(c4ccc(Cl)c(Cl)c4)C3)N1C(=O)C1CC1)n2[C@H]1[C@H]2CN[C@@H]1C2 (atropisomer, axis not shown; (Ra)) [Example 15, 3-((Ra)-1-((1R,4R,5S)-2-azabicyclo[2.1.1]hexan-5-yl)-2-((1S,5R,7R)-6-(cyclopropanecarbonyl)-3-(3,4-dichlorophenyl)-3,6-diazabicyclo[3.2.1]octan-7-yl)-7-(2,3-dichlorophenyl)-6-fluoro-4-methyl-1H-pyrrolo[3,2-c]quinolin-8-yl)propanenitrile] | ††† | †††† | ≤ 0.5

Continued, values first:

Row | G12D_exchange (KRAS_G12D exchange assay IC50) [1] | G12V_exchange (KRAS_G12V exchange assay IC50) [2] | Papp A→B at 120 min, 50 μM [3] [×10⁻⁶ cm/s] | Compound
6 | † | † | ≤ 0.5 | Cc1nc2c(F)c(-c3cccc(Cl)c3Cl)c(CCC#N)cc2c2c1cc([C@H]1[C@H]3C[C@H](CN(c4ccc5c(c4)OC(F)(F)O5)C3)N1C(=O)C1CC1)n2[C@H]1[C@H]2CN[C@@H]1C2 (atropisomer, axis not shown; (Ra)) [Example 7, 3-((Ra)-1-((1R,4R,5S)-2-azabicyclo[2.1.1]hexan-5-yl)-2-((1S,5R,7R)-6-(cyclopropanecarbonyl)-3-(2,2-difluorobenzo[d][1,3]dioxol-5-yl)-3,6-diazabicyclo[3.2.1]octan-7-yl)-7-(2,3-dichlorophenyl)-6-fluoro-4-methyl-1H-pyrrolo[3,2-c]quinolin-8-yl)propanenitrile]
7 | † | † | ≤ 0.5 | Cc1nc2c(F)c(-c3cccc(Cl)c3Cl)c(CCC#N)cc2c2c1cc([C@H]1[C@H]3C[C@H](CN(c4cccc(F)c4)C3)N1C(=O)C1CC1)n2[C@H]1[C@H]2CN[C@@H]1C2 (atropisomer, axis not shown; (Ra)) [Example 13, 3-((Ra)-1-((1R,4R,5S)-2-azabicyclo[2.1.1]hexan-5-yl)-2-((1S,5R,7R)-6-(cyclopropanecarbonyl)-3-(3-fluorophenyl)-3,6-diazabicyclo[3.2.1]octan-7-yl)-7-(2,3-dichlorophenyl)-6-fluoro-4-methyl-1H-pyrrolo[3,2-c]quinolin-8-yl)propanenitrile]
8 | † | † | ≤ 0.5 | Cc1ccc(N2C[C@@H]3C[C@H](C2)N(C(=O)C2CC2)[C@H]3c2cc3c(C)nc4c(F)c(-c5cccc(Cl)c5Cl)c(CCC#N)cc4c3n2[C@H]2[C@H]3CN[C@@H]2C3)cn1 (atropisomer, axis not shown; (Ra)) [Example 14, 3-((Ra)-1-((1R,4R,5S)-2-azabicyclo[2.1.1]hexan-5-yl)-2-((1S,5R,7R)-6-(cyclopropanecarbonyl)-3-(6-methylpyridin-3-yl)-3,6-diazabicyclo[3.2.1]octan-7-yl)-7-(2,3-dichlorophenyl)-6-fluoro-4-methyl-1H-pyrrolo[3,2-c]quinolin-8-yl)propanenitrile]
9 | †† | † | ≤ 0.5 | Cc1nc2c(F)c(-c3cccc(Cl)c3Cl)c(CCC#N)cc2c2c1cc([C@H]1[C@H]3C[C@H](CN(c4cccc(C#N)c4)C3)N1C(=O)C1CC1)n2[C@H]1[C@H]2CN[C@@H]1C2 (atropisomer, axis not shown; (Ra)) [Example 17, 3-((1S,5R,7R)-7-((Ra)-1-((1R,4R,5S)-2-azabicyclo[2.1.1]hexan-5-yl)-8-(2-cyanoethyl)-7-(2,3-dichlorophenyl)-6-fluoro-4-methyl-1H-pyrrolo[3,2-c]quinolin-2-yl)-6-(cyclopropanecarbonyl)-3,6-diazabicyclo[3.2.1]octan-3-yl)benzonitrile]
10 | †† | † | ≤ 0.5 | Cc1nc2c(F)c(-c3cccc(Cl)c3Cl)c(CCC#N)cc2c2c1cc([C@H]1[C@H]3C[C@H](CN(c4cccc(Cl)c4)C3)N1C(=O)C1CC1)n2[C@H]1[C@H]2CN[C@@H]1C2 (atropisomer, axis not shown; (Ra)) [Example 19, 3-((Ra)-1-((1R,4R,5S)-2-azabicyclo[2.1.1]hexan-5-yl)-2-((1S,5R,7R)-3-(3-chlorophenyl)-6-(cyclopropanecarbonyl)-3,6-diazabicyclo[3.2.1]octan-7-yl)-7-(2,3-dichlorophenyl)-6-fluoro-4-methyl-1H-pyrrolo[3,2-c]quinolin-8-yl)propanenitrile]
11 | †† | † | ≤ 0.5 | Cc1nc2c(F)c(-c3cccc(Cl)c3Cl)c(CCC#N)cc2c2c1cc([C@H]1[C@H]3C[C@H](CN(c4cccc(OC(F)(F)F)c4)C3)N1C(=O)C1CC1)n2[C@H]1[C@H]2CN[C@@H]1C2 (atropisomer, axis not shown; (Ra)) [Example 20, 3-((Ra)-1-((1R,4R,5S)-2-azabicyclo[2.1.1]hexan-5-yl)-2-((1S,5R,7R)-6-(cyclopropanecarbonyl)-3-(3-(trifluoromethoxy)phenyl)-3,6-diazabicyclo[3.2.1]octan-7-yl)-7-(2,3-dichlorophenyl)-6-fluoro-4-methyl-1H-pyrrolo[3,2-c]quinolin-8-yl)propanenitrile]
